Assay results from patent US20120142027A1, “Compositions and Methods for Modulating the Immune Response and Identifying Immunomodulators” (WHITEHEAD INSTITUTE FOR BIOMEDICAL RESEARCH, priority 2007, published 2012).

Experiments:
[1] = test system: RAW macrophages stably expressing wild type UNC93B-HA; assay: Endo H sensitivity of UNC93B-HA and Class I MHC in RAW macrophages; type: cell-based, mouse; conditions: Brefeldin A 10 μg/ml, present throughout pulse, chase and CpG stimulation
Procedure: FIG. 14. The interaction between UNC93B and TLRs maintains in dendritic cells stimulated with TLR agonists. (a) BM-DCs were metabolically labeled with ^35S-methionine/cysteine and stimulated with TLR ligands for 1 h (LPS: 1 μg/ml, poly (I:C): 50 μg/ml, Imiquimod: 2.5 CpG DNA: 2.5 μM). Endogenous UNC93B and TLRs were immunoprecipitated with an anti-UNC93B antibody, digested with endoglycosidase H (Endo H), subjected to 10% SDS-PAGE and visualized by fluorography. TLRs coimmunoprecipitated with UNC93B are denoted by open triangles. Interaction between TLRs and UNC93B was maintained even after TLR stimulation with various agonists. […] NRS; normal rabbit serum (b) RAW macrophages stably expressing wild type UNC93B-HA were exposed to Brefeldin A (10 μg/ml) for 2 h, metabolically labeled with ^35S-methionine/cysteine for 30 min (pulse), incubated in normal medium for 2 h (chase) followed by 2 h stimulation with CpG (+CpG) or were left unstimulated (−CpG). All incubations (pulse, chase, CpG stimulation) were done in the continuous presence of Brefeldin A. As a control, cells were not treated with Brefeldin A (−BA). Cells were lysed in RIPA buffer and UNC93B-HA and Class I MHC products were recovered from cell lysates by immunoprecipitation with an anti-HA (upper panel) or Class I antibody (lower panel), respectively. […]

TLR signaling = conditions: pretreatment of wild type cells; cited from earlier work
[2] = test system: UNC93B/TLR interaction in A20 B cells; assay: Coimmunoprecipitation of TLRs with UNC93B-HA after stimulation with TLR agonists; type: cell-based, mouse; conditions: imiquimod 10 μM, gardiquimod 1 μM, CpG DNA 1 μM, 1 h
Procedure: Stimulation with TLR agonists. A20 B cells either not transduced or stably transduced with UNC93B-HA WT or H412R were metabolically labeled with ^35S-methionine/cysteine for 4 h (pulse). TLR agonists were added to the cells for the final hour of the pulse at the following concentrations: imiquimod: 10 μM, gardiquimod: 1 μM, CpG DNA: 1 μM.
Pulse-chase, immunoprecipitation and Endo H/F assay. In brief, cells were starved for methionine and cysteine in Met/Cys-free DMEM (starvation medium) for 30 min, pulsed for different time periods (see figure legends) with ^35S-labeled methionine/cysteine (Perkin Elmer) in starvation medium supplemented with dialyzed IFS, and chased with an excess of non-radioactive amino acids in regular DMEM for various time periods (see figure legends). Cells were lysed in either of the following lysis buffers supplemented with the complete protease inhibitors (Roche) as indicated in the figure legends: RIPA (20 mM Tris-HCl, pH 7.4, 1 mM EDTA, 100 mM NaCl, 1% Triton X-100, 0.5% sodium deoxycholate, 0.1% SDS), or buffer containing 50 mM Tris-HCl, pH 7.4, 150 mM NaCl, 5 mM EDTA with either 1% NP-40 or 1% digitonin as detergent. Lysates were equalized for incorporation of radioactive material with ^35S counts in the trichloroacetic acid precipitate and immunoprecipitated with the indicated antibodies. […]

BM-DCs [3] = assay: TNF production in BM-DCs stimulated with TLR agonists (intracellular TNF, flow cytometry); type: cell-based, mouse; conditions: BM-DCs from 3d (UNC93B H412R) mice; 100 nM imiquimod or 1 μM CpG, 4 h, with 10 μg/ml brefeldin A
Procedure: TNF assay. Five days old BM-DCs expressing either wild type or mutant UNC93B-GFP were stimulated with 1 μg/ml LPS, 100 nM imiquimod or 1 μM CpG for 4 hours in the presence of 10 μg/ml brefeldin A. The cells were fixed with 4% formaldehyde for 10 min at RT and permeabilized with 0.5% saponin in FACS buffer (PBS with 2% BSA and 0.05% sodium azide) for 10 min. After blocking with anti-CD16 antibody (clone 2.4G2) for 30 min, cells were stained with PE-conjugated anti-CD11c (clone HL3) and Alexa Fluor 647-conjugated anti-TNF (clone MP6-XT22) antibodies for 30 min. Fluorescence intensity was measured with LSR I flow cytometer (BD biosciences). Data were collected with CellQuest (BD biosciences) and analyzed with FlowJo (TriStar).

BM-DCs [4] = assay: Surface MHC class II level on BM-DCs by flow cytometry; type: cell-based, mouse; conditions: B6 or 3d BM-DCs; 1 μg/ml LPS, 1 μM CpG or 1 μM imiquimod, 16 h
Procedure: (b) BM-DCs from B6 and 3d mice were fixed, permeablized and stained for MHC class II (green) and Lamp1 (red). […] White dashed lines mark the cell boundary. […] (d) B6 or 3d BM-DCs were stimulated with 1 μg/ml LPS or 1 μM CpG for 16 h, fixed, permeabilized and stained for MHC class II and Lamp1. […] Scale bars; 10 μm

TLR7 = biological target: T1, TLR7 (Mus musculus, UniProt P58681); assay: Live cell imaging of TLR7-YFP localization in BM-DCs; type: cell-based; conditions: wild type (B6) BM-DCs, 1 μM imiquimod, 2 h
T1 construct: expressed in transfected cells; host or cells: bone marrow-derived dendritic cells from B6 or 3d mice, retroviral transduction (pMXrmv5-TLR7-YFP)
T1 sequence (P58681 27-1050): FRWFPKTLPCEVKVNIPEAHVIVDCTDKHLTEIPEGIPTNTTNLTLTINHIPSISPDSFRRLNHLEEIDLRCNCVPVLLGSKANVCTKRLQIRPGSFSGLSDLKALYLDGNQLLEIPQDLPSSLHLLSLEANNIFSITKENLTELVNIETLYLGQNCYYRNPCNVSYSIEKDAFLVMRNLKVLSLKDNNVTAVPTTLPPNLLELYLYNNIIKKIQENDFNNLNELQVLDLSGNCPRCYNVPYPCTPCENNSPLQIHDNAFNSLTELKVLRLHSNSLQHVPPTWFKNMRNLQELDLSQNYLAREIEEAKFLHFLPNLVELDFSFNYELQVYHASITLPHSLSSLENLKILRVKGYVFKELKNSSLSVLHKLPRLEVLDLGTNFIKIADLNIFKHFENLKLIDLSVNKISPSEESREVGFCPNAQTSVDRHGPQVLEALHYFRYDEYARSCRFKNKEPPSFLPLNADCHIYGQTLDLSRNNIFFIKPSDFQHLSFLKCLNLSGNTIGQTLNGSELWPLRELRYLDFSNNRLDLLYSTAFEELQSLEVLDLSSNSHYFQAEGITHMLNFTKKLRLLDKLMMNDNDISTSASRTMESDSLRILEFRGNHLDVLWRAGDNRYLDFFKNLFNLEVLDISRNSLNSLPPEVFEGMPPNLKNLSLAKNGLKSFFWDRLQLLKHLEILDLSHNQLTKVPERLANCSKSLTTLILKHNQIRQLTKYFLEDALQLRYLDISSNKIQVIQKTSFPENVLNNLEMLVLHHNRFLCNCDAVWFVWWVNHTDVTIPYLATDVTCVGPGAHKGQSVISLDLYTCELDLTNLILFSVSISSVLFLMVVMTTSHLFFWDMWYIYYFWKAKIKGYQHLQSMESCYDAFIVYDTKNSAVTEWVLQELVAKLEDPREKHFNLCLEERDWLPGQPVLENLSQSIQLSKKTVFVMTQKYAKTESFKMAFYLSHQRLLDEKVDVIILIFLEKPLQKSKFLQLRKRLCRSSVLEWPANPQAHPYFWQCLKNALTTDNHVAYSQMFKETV
Procedure: Image acquisition and data analysis. For live cell imaging, cells were grown in 8 well-chambered coverglasses (LAB-TEK). During imaging, cells were maintained in phenol red-free DMEM supplemented with 25 mM Hepes (pH 7.4) at 37° C. with 5% supplemental CO2 in room air using a Solent scientific chamber. Images were acquired using a spinning disk confocal microscope equipped with a 3 watt water-cooled 5 line laser (Prairie Technologies), a Nikon TE2000-U inverted microscope, acousto-optic tunable filters (AOTF), a Yokagawa QLC-100 spinning disk confocal head, a Prior x,y stage controller, a Piezo z stage and Hamamatsu Orca ER and EM CCD cameras. All images were taken with a Nikon 100X 1.4NA DIC lens. Metamorph (Molecular Devices) was used for image acquisition and figures were constructed using Adobe Photoshop and Illustrator. Quantitative colocalization analyses were performed using applications ‘Measure Colocalization’ and ‘Correlation Plot’ in the MetaMorph software (Molecular Devices).

| Compound | effect on TLR signaling compared with the defects of 3d cells (TLR signaling) | levels of coimmunoprecipitated TLR polypeptides after TLR activation versus unstimulated cells [2] | other results |
| --- | --- | --- | --- |
| C[C@H]1CCC/C=C/[C@@H]2C[C@H](O)C[C@H]2[C@H](O)/C=C/C(=O)O1 [Brefeldin A] |  |  | Endo H resistance of Class I MHC and UNC93B [1]: both Class I MHC and UNC93B acquire partially EndoH resistant hybrid type oligosaccharides |
| CO/C1=C\C(C)=C\[C@@H](C)[C@@H](O)[C@@H](C)C/C(C)=C/C=C/[C@H](OC)[C@@H]([C@@H](C)[C@@H](O)[C@H](C)[C@@]2(O)C[C@@H](O)[C@H](C)[C@@H](C(C)C)O2)OC1=O [bafilomycin] | mimicked |  |  |
| CCN(CC)CCCC(C)Nc1ccnc2cc(Cl)ccc12 (centres unmarked) [chloroquine] | mimicked |  |  |
| CCNCc1nc2c(N)nc3ccccc3c2n1CC(C)(C)O [gardiquimod] |  | No significant changes |  |
| CC(C)Cn1cnc2c(N)nc3ccccc3c21 [imiquimod, Imiquimod] |  | No significant changes | TNF production (BM-DCs [3]): failed to produce TNF; surface level of MHC class II (BM-DCs [4]): failed to increase the MHC class II level in 3d cells; localization of TLR7 after stimulation (TLR7): trafficking of TLR7 from the ER to endolysosomes was also observed |
